One data set has as its system S. mutans PMZ175. The data set can be described thus: bacteriolytic effect, decrease in turbidity with time, various surfactants added to Aml. Format: cell-based, Streptococcus mutans. The conditions noted are these: Table 3. Here is the method: (§1) The method for measuring the bacteriolytic effect adopted in the present invention is as follows.
(§2) The bacterial strain to be measured its bacteriolytic effect was cultivated overnight, it was washed by physiological saline then suspended into 0.1M phosphate buffer (pH 6.8) containing 0.1M NaCl and 0.1 mM CaCl2. The cell body was treated by ultrasonic generator to disperse the cell body. Thereafter, 500 μg/ml Aml solution dissolved into 30% ethyleneglycol-0.1M sodium phosphate buffer (pH 6.3) and 5 mg/ml surfactant dissolved into distilled water (40 μl) were added into a system consisting of 1 ml of bacterial suspension. 0.1M phosphate buffer solution and 0.1 mM calcium. It was incubated at 37° C., then the turbidity was measured with time, and the bacteriolytic effect was evaluated using the rate of decrease in turbidity as an index.
Using S. mutans PMZ175 (a cariogenic bacterium), the bacteriolytic effect was investigated using experimental systems in which various surfactants were added to Aml (FIG. 3, Table 3). Meanwhile, the food additives investigated in this experiment were glycyrrhizin (0.5%), saponin from quillaya (0.5%), S1670 (0.1%), S1570 (0.05%), P1670 (0.05%), saponin from soybean (0.05%), saponin from yucca (0.05%), and Triton X (0.05%).

For a further data set, the system named is Streptcoccus mutans 403R. The data set can be described thus: bacteriolytic effect, decrease in turbidity with time. The format is cell-based, Streptococcus mutans. The conditions noted are these: for percentage of turbidity (beginning = 100%): Table 1, Aml alone or Aml + 0.05% surfactant. Here is the method:
as §1, §2
Using Streptcoccus mutans 403R (dental caries causing bacterium), the bacteriolytic effect was measured with time using an experimental system of Aml alone, and an experimental system of Aml added with P1670 or S1570 at the concentration of 0.05% (Table 1, FIG. 1). In table 1 and FIG. 1, the turbidity of the bacterial solution at the beginning of the experiment was indicated as 100%, and the bacteriolytic effect was represented by the percentage of turbidity at each time point. […] By the way, the control indicates a system in which only a cariogenic bacterium was cultivated.
Using Streptcoccus mutans 403R, the bacteriolytic effect was measured with time on systems in which P1670 or S1570 was added into Aml at various final concentrations (0.05%, 0.025%, 0.001%) (Table 2, FIG. 2).

Take `CC1(C)[C@@H](O[C@H]2O[C@H](C(=O)O)[C@@H](O)[C@H](O)[C@H]2O[C@@H]2O[C@H](C(=O)O)[C@@H](O)[C@H](O)[C@H]2O)CC[C@]2(C)[C@H]3C(=O)C=C4[C@@H]5C[C@@](C)(C(=O)O)CC[C@]5(C)CC[C@@]4(C)[C@]3(C)CC[C@@H]12` [Glycyrrhizin, glycyrrhizin]: the “percentage of turbidity (beginning = 100%)” value with S. mutans PMZ175 (Aml + 0.5% surfactant, Time 0) was 100.0%; with S. mutans PMZ175 (Aml + 0.5% surfactant, Time 0.25) it was 96.6%; in the data set on S. mutans PMZ175 (Aml + 0.5% surfactant, Time 0.5) it was 93.6%; with S. mutans PMZ175 (Aml + 0.5% surfactant, Time 1), 89.0%; with S. mutans PMZ175 (Aml + 0.5% surfactant, Time 1.5), 81.3%; in the data set on S. mutans PMZ175 (Aml + 0.5% surfactant, Time 2.5) it was 83.7%. Besides, the “percentage of turbidity (beginning = 100%)” value with S. mutans PMZ175 (Aml + 0.5% surfactant, Time 3) came to 80.3%; in the data set on S. mutans PMZ175 (Aml + 0.5% surfactant, Time 3.5) it was 82.3%; with S. mutans PMZ175 (Aml + 0.5% surfactant, Time 4) it was 77.4%.
Consider `CC(C)(C)CC(C)(C)c1ccc(OCCO)cc1` [Triton, Triton X], for which the “percentage of turbidity (beginning = 100%)” value in the data set on S. mutans PMZ175 (Aml + 0.05% surfactant, Time 0) is reported as 100.0%; with S. mutans PMZ175 (Aml + 0.05% surfactant, Time 0.25) it was 93.8%; in the data set with S. mutans PMZ175 (Aml + 0.05% surfactant, Time 0.5), 68.6%; in the data set on S. mutans PMZ175 (Aml + 0.05% surfactant, Time 1) it was 10.3%; in the data set on S. mutans PMZ175 (Aml + 0.05% surfactant, Time 1.5), −3.4%; in the data set on S. mutans PMZ175 (Aml + 0.05% surfactant, Time 2.5), −6.6%. For the same molecule, the “percentage of turbidity (beginning = 100%)” value in the data set with S. mutans PMZ175 (Aml + 0.05% surfactant, Time 3) is −7.1%; in the data set on S. mutans PMZ175 (Aml + 0.05% surfactant, Time 3.5), −7.7%; in the data set on S. mutans PMZ175 (Aml + 0.05% surfactant, Time 4) it was −8.8%.

B1: automutanolysin (protein)
chain: MKSKTYLMIPLALTLFMAANKISADEQNQSLSASEVISSDATSVSELPATTAQISQEVRNNGQDSTIQLQQTQEQSDPITSTSETTVSSMKAATNGSPAKANETETVPSQASTASSVQTPDQILTVPSVKAETTSTADQLQSTSSAPLDQQTDAKRLSNKMTPASSVQARSSLTQDKQVQAQEVTSAVVEEKGIKLQYNGQIARNTKIQFAVWSARNDQDDLQWYTANNMGAAYAEFKNHREYGTYYVHTYANQNGKMIGLNATTLTIAQPQVQTNIQRKSATNFELTVSNVPNTISGIMVPVWSDQNGQDDIKWYNARKADDGSYKVLIDTKNHKNDLGHYEAHIYGYSTVTQSQIGLAVSSGFDRNDTRPNARISVANYDQNKTTFDVVVEGSSDTKTVSAVNIAVWSEDKGQDDLKWYSPKIVDNKATVTINIANHSNTSDKYNVHVYTDYTDGTHSGTILGAYQINKPLEKNTVSADLTSDGIALKLDSNTVTDYTKVRFAVWSDQNGQDDLKWYSANSDGTATAAYSNHSGYGLYHIHTYIIKDGKMVGLNGKTITINQPSAKVDIAKESDALYKVTVSNLPAYISSVVIPVWTDKNNQDDIQWIPATKQGDGTYAAQIQLADHNGETGHYNVHVYGQSKFDNKAVGLAATDGFNVAETRNAVIAASNYNASAGTIDMIVKQEAGGKAIKEVRIAAWSEADQSNLHWYVSSTIIDGKVTVTINEKNHQYIKGNYNIHVYVDYTDGTSSGTNIGNYSLNADKPAVALPSYFIDISSHNGIISVAEFNSLKQQGIQGVVVKLTEGTSYINPYASSQIANARAAGIKVSAYHYAHYTSAAGAQEEARYFANAARSFGLEASTVMVNDMEESSMVNNINNNVQAWQDEMRRQGYSNLIHYTMASWLDIRGGQVDTARFGINNFWVAHYAKGYTYMTQEEAKSLNYYANAAAWQYTSVSSKLSHALDENIDYTGRFTQQ
modifications: Streptococcus mutans
notes: bacterial cell wall lytic enzyme from Streptococcus mutans specific to cariogenic bacterium
On to B1, for which the “percentage of turbidity (beginning = 100%)” value with Streptcoccus mutans 403R (Time 0) worked out at 100.0%; with Streptcoccus mutans 403R (Time 0.25), 93.3%; in the data set with Streptcoccus mutans 403R (Time 0.5) it was 81.5%; in the data set on Streptcoccus mutans 403R (Time 1), 62.6%; in the data set on Streptcoccus mutans 403R (Time 1.5), 50.8%; with Streptcoccus mutans 403R (Time 2) it was 42.2%. Besides, the “percentage of turbidity (beginning = 100%)” value in the data set with Streptcoccus mutans 403R (Time 4) is 24.6%. Moreover, the “time required for the bacteriolysis of 50% of living bacterium (ED50)” value in the data set on Streptcoccus mutans 403R (summary, Aml alone) was 1.5 h.

(Values after patent US8852584B2, “Bactericide having selectivity to cariogenic bacterium, and a method for sterilization of cariogenic bacterium” (Two Cells Co., Ltd., priority 2005, dated 2014).)
